Measurements from US11612604B2, “Methods of treating cancer with PLK4 inhibitors” (LUDWIG INSTITUTE FOR CANCER RESEARCH LTD, priority 2017, dated 2023).

biological target: T1, PLK4 (Homo sapiens, UniProt O00444); experiment: Activity (IC50) of the Table 1 compounds as PLK4 inhibitors; type: biochemical; conditions: Table 1, IC50 class
T1 sequence (O00444 1-970): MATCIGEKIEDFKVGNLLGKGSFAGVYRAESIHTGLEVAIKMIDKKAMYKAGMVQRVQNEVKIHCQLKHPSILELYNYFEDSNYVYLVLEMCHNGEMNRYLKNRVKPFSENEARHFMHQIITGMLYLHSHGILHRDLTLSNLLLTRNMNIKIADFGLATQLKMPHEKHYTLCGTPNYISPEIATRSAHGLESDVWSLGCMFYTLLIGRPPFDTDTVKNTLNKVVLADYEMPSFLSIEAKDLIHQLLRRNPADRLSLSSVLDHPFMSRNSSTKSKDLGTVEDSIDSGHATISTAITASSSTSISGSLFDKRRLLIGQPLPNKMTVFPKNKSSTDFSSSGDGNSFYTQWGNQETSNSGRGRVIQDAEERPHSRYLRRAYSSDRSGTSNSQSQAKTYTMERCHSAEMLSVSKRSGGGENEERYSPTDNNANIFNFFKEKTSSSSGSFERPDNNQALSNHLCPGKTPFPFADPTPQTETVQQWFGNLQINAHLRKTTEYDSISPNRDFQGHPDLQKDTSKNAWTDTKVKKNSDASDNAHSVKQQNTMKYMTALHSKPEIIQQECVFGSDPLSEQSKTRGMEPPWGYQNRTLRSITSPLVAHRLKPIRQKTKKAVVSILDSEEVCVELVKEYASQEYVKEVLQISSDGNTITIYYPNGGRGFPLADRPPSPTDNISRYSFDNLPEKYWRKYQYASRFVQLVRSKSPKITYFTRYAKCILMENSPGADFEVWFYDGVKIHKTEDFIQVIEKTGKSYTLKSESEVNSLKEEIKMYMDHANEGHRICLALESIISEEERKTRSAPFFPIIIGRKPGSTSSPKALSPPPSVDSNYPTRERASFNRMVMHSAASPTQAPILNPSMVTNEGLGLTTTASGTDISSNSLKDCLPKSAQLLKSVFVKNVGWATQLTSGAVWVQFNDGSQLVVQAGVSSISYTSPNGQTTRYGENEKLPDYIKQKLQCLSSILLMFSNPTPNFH

IC50, < 100 nM:
Cc1cc(Nc2cc(C)[nH]n2)nc(Sc2ccc(NC(=O)C3CC3)cc2)n1
COc1c(Nc2cc(C)[nH]n2)nc(Sc2ccc(NC(=O)C3CC3)cc2)nc1N1CCNCC1
COCCNc1nc(Sc2ccc(NC(=O)C3CC3)cc2)nc(Nc2cc(C)[nH]n2)c1OC
COc1c(Nc2cc(C)[nH]n2)nc(Sc2ccc(S(=O)(=O)Cc3cccc(NC(C)=O)c3)cc2)nc1N1CCN(CCN(C)C)CC1
COc1c(Nc2cc(C)[nH]n2)nc(Sc2ccc(S(=O)(=O)Cc3cccc(N(C)C)c3)cc2)nc1N1CCN(CCN(C)C)CC1
COC(=O)c1ccccc1CS(=O)(=O)c1ccc(Sc2nc(Nc3cc(C)[nH]n3)c(OC)c(N3CCN(CCN(C)C)CC3)n2)cc1
COc1c(Nc2cc(C)[nH]n2)nc(Sc2ccc(S(=O)(=O)Cc3ccccc3C(=O)N(C)C)cc2)nc1N1CCN(CCN(C)C)CC1
COc1c(Nc2cc(C)[nH]n2)nc(Sc2ccc(S(=O)(=O)Cc3cccc(C(=O)O)c3)cc2)nc1N1CCN(CCN(C)C)CC1
COc1c(Nc2cc(C)[nH]n2)nc(Sc2ccc(S(=O)(=O)Cc3ccccc3C(=O)O)cc2)nc1N1CCN(CCN(C)C)CC1
COc1ccc([N+](=O)[O-])cc1CS(=O)(=O)c1ccc(Sc2nc(Nc3cc(C)[nH]n3)c(OC)c(N3CCN(CCN(C)C)CC3)n2)cc1
COc1c(CS(=O)(=O)c2ccc(Sc3nc(Nc4cc(C)[nH]n4)c(OC)c(N4CCN(CCN(C)C)CC4)n3)cc2)cccc1[N+](=O)[O-]
COc1c(Nc2cc(C)[nH]n2)nc(Sc2ccc(S(=O)(=O)Cc3cc([N+](=O)[O-])ccc3F)cc2)nc1N1CCN(CCN(C)C)CC1
COc1c(Nc2cc(C)[nH]n2)nc(Sc2ccc(S(=O)(=O)Cc3cccc([N+](=O)[O-])c3)cc2F)nc1N1CCN(CCN(C)C)CC1
COc1c(Nc2cc(C)[nH]n2)nc(Sc2ccc(S(=O)(=O)Cc3cccc([N+](=O)[O-])c3F)cc2)nc1N1CCCCC1
COc1c(Nc2cc(C)[nH]n2)nc(Sc2ccc(S(=O)(=O)Cc3cc(F)cc([N+](=O)[O-])c3)cc2)nc1N1CCN(CCN(C)C)CC1
COc1c(Nc2cc(C)[nH]n2)nc(Sc2ccc(S(=O)(=O)Cc3cccc([N+](=O)[O-])c3Cl)cc2)nc1N1CCN(CCN(C)C)CC1
COc1c(Nc2cc(C)[nH]n2)nc(Sc2ccc(S(=O)(=O)Cc3cccc([N+](=O)[O-])c3F)cc2F)nc1N1CCN(CCN(C)C)CC1
COc1c(Nc2cc(C)[nH]n2)nc(Sc2ccc(S(=O)(=O)Cc3cccc([N+](=O)[O-])c3)cc2F)nc1N1CCOCC1
COc1c(Nc2cc(C)[nH]n2)nc(Sc2ccc(S(=O)(=O)Cc3cccc([N+](=O)[O-])c3)cc2F)nc1N1CCOC[C@@H]1C
COc1c(Nc2cc(C)[nH]n2)nc(Sc2ccc(S(=O)(=O)Cc3cccc([N+](=O)[O-])c3C#N)cc2)nc1N1CCN(CCN(C)C)CC1
COc1c(Nc2cc(C)[nH]n2)nc(Sc2ccc(S(=O)(=O)Cc3cccc([N+](=O)[O-])c3F)cc2)nc1N1CCC(O)CC1
COc1c(Nc2cc(C)[nH]n2)nc(Sc2ccc(S(=O)(=O)Cc3cccc([N+](=O)[O-])c3O)cc2)nc1N1CCN(CCN(C)C)CC1
COc1c(Nc2cc(C)[nH]n2)nc(Sc2ccc(S(=O)(=O)Cc3cccc([N+](=O)[O-])c3)cc2)nc1N1C2CCC1COC2
COc1c(Nc2cc(C)[nH]n2)nc(Sc2ccc(S(C)(=O)=O)cc2F)nc1N1CCC(CCN(C)C)CC1
COc1c(Nc2cc(C)[nH]n2)nc(Sc2ccc(S(C)(=O)=O)cc2F)nc1N1CCN(CCN(C)C)CC1
COc1c(Nc2cc(C)[nH]n2)nc(Sc2ccc(S(C)(=O)=O)cc2Cl)nc1N1CCN(CCN(C)C)CC1
COc1c(Nc2cc(C)[nH]n2)nc(Sc2ccc(S(C)(=O)=O)cc2Cl)nc1N1CCC(CCN(C)C)CC1
CCS(=O)(=O)c1ccc(Sc2nc(Nc3cc(C)[nH]n3)c(OC)c(N3CCOCC3)n2)c(Cl)c1
COc1c(Nc2cc(C)[nH]n2)nc(Sc2ccc(S(=O)(=O)Cc3cccc([N+](=O)[O-])c3F)cc2F)nc1N1CCOC[C@H]1C
COc1c(Cc2cc(C)[nH]n2)nc(Sc2ccc(S(=O)(=O)Cc3cccc([N+](=O)[O-])c3)cc2F)nc1N1CCOC[C@H]1C
CCS(=O)(=O)c1ccc(Sc2nc(Nc3cc(C)[nH]n3)c(OC)c(N3CCN(CCN(C)C)CC3)n2)c(Cl)c1
CCS(=O)(=O)c1ccc(Sc2nc(Nc3cc(C)[nH]n3)c(OC)c(N3CCN(C)CC3)n2)c(Cl)c1
CCS(=O)(=O)c1ccc(Sc2nc(Nc3cc(C)[nH]n3)c(OC)c(N3CCN(CCN(C)C)CC3)n2)c(F)c1
CCS(=O)(=O)c1ccc(Sc2nc(Nc3cc(C)[nH]n3)c(OC)c(N3CCC(CCN(C)C)CC3)n2)c(F)c1
CCS(=O)(=O)c1ccc(Sc2nc(Cc3cc(C)[nH]n3)c(OC)c(N3CCOC[C@@H]3C)n2)c(Cl)c1
COc1c(Cc2cc(C)[nH]n2)nc(Sc2ccc(S(C)(=O)=O)cc2F)nc1N1CCOC[C@@H]1C
COc1c(Nc2cc(C)[nH]n2)nc(Sc2ccc(S(=O)(=O)Cc3cccc(F)c3F)cc2F)nc1N1CCCCC1
COc1c(Nc2cc(C)[nH]n2)nc(Sc2ccc(S(=O)(=O)Cc3cccc(F)c3F)cc2F)nc1N1CCOCC1
COc1c(Nc2cc(C)[nH]n2)nc(Sc2ccc(S(=O)(=O)Cc3cccc(F)c3F)cc2F)nc1N1CCN(CCN(C)C)CC1
COc1c(Cc2cc(C)[nH]n2)nc(Sc2ccc(S(=O)(=O)Cc3cccc(F)c3F)cc2F)nc1N1CCOC[C@@H]1C
COc1c(Nc2cc(C)[nH]n2)nc(Sc2ccc(S(=O)(=O)Cc3c(F)ccc(F)c3F)cc2F)nc1N1CCN(CCN(C)C)CC1
COc1c(Nc2cc(C)[nH]n2)nc(Sc2ccc(S(=O)(=O)Cc3cccc([N+](=O)[O-])c3F)cc2F)nc1N1CCOC[C@@H]1C
COc1c(Nc2cc(C)[nH]n2)nc(Sc2ccc(S(=O)(=O)Cc3cccc([N+](=O)[O-])c3)cc2)nc1N1CCOC[C@@H]1CO
COc1c(Nc2cc(C)[nH]n2)nc(Sc2ccc(S(=O)(=O)Cc3cccc(Cl)c3F)cc2F)nc1N1CCOCC1
COc1c(Nc2cc(C)[nH]n2)nc(Sc2ccc(S(=O)(=O)Cc3cccc(Br)c3F)cc2F)nc1N1CCOCC1
COc1c(Nc2cc(C)[nH]n2)nc(Sc2ccc(S(=O)(=O)Cc3c(F)c(F)cc(F)c3F)cc2F)nc1N1CCOCC1
COc1c(Nc2cc(C)[nH]n2)nc(Sc2ccc(S(=O)(=O)Cc3cccc(C(F)(F)F)c3F)cc2F)nc1N1CCOCC1
COc1c(Nc2cc(C)[nH]n2)nc(Sc2ccc(S(=O)(=O)Cc3cccc(C#N)c3F)cc2F)nc1N1CCOCC1
COc1c(Nc2cc(C)[nH]n2)nc(Sc2ccc(S(=O)(=O)Cc3cccc(N)c3F)cc2F)nc1N1CCOCC1
COc1c(Nc2cc(C)[nH]n2)nc(Sc2ccc(S(=O)(=O)C(F)c3cccc([N+](=O)[O-])c3F)cc2F)nc1N1CCOCC1 (stereo not drawn)
COC(=O)c1cccc(CS(=O)(=O)c2ccc(Sc3nc(Nc4cc(C)[nH]n4)c(OC)c(N4CCOCC4)n3)c(F)c2)c1F
COc1c(Nc2cc(C)[nH]n2)nc(Sc2ccc(S(=O)(=O)Cc3cccc(C(=O)N(C)C)c3F)cc2F)nc1N1CCOCC1
COc1c(Nc2cc(C)[nH]n2)nc(Sc2ccc(S(=O)(=O)Cc3cccc(C(N)=O)c3F)cc2F)nc1N1CCOCC1
COc1c(Nc2cc(C)[nH]n2)nc(Sc2ccc(S(=O)(=O)Cc3cccc([N+](=O)[O-])c3F)cc2F)nc1N1CCOC[C@@H]1CO
COc1c(Nc2cc(C)[nH]n2)nc(Sc2ccc(S(=O)(=O)Cc3cccc(Br)c3F)cc2F)nc1N1CCCCC1
COc1c(Nc2cc(C)[nH]n2)nc(Sc2ccc(S(=O)(=O)Cc3cccc(I)c3F)cc2F)nc1N1CCOCC1
COc1c(Nc2cc(C)[nH]n2)nc(Sc2ccc(S(=O)(=O)c3cccc([N+](=O)[O-])c3)cc2F)nc1N1CCOCC1
